Series [1] has as its target T1, recombinant human CYP3A4 (Baculosomes) (Homo sapiens, UniProt P08684).
T1 construct: purchased ThermoFisher Scientific Cat. no; 2856
Kind of series: Vivid CYP3A4 Red Screening Kit fluorimetric inhibition assay (BOMR substrate). It is filed as biochemical. The following applies: for IC50: Baculosomes, fluorescence, positive control KTZ, mean ± SEM; for Effect on CYP3A4 activity (in words): up to 50 µmol/L. On the procedure: (§1) Flavone, galangin, resokaempferol, myricetin, and gossypetin were purchased from Indofine Chemical Company, Inc. (Hillsborough, NJ, USA). Kaempferol and scutellarein were obtained from Extrasynthese (Genay, France). […] Fisetin was obtained from Biosynth (Staad, Switzerland). […] Dimethyl sulfoxide (DMSO) was obtained from VWR International (Radnor, PA, USA), and acetonitrile was obtained from Merck KGaA (Darmstadt, Germany). The effect on CYP3A4 catalytic performance was evaluated using the Vivid® CYP3A4 Screening Kit (ThermoFischer Scientific, Waltham, MA, USA), following the indications of the manufacturer. This kit assesses how tested compounds affect the rate of fluorescence increase caused by the breakdown of a resorufin-blocked dye substrate by the human CYP3A4 enzyme. The enzyme promoted the cleavage of substrate at two different bonds, both generating a red highly fluorescent dye, in order to minimize spectral interferences caused by other compounds in the reaction medium. […] This setup helped to further circumvent interference from highly fluorescent compounds like NADPH, which are excited at UV wavelengths. […] The last enzyme and its substrate work as NADPH regenerating system since it catalyzes its formation through NADP^+, added subsequently. […] The fluorescence measurements were performed every 30 s for 30 min in a microplate reader with plate shaking and temperature control, 29 °C (Cytation 5, BIO-TEK, Winooski, VT, USA). The percentage of inhibition was calculated based on the reaction initial rates measured from the constant slope values of the fluorescence–time charts. […] The statistical analysis comprised both comparisons by the Student’s t-test for mean % inhibition and one-way analysis of variance (ANOVA) for the comparison between concentrations on the IC50. […] Differences were significant for p < 0.05.

Series [2] deals with CYP3A4. The conditions noted are these: BCS, fluorescence, cited from earlier work.
Series [3] deals with T2, CYP3A4 (Homo sapiens, UniProt P08684).
T2 construct: purchased ThermoFisher Scientific Cat. no; 2856
The series is described as follows: Vivid CYP3A4 Red Screening Kit fluorimetric inhibition assay (BOMR substrate). It is filed as biochemical. The conditions noted are these: human. How it is done:
as §1

In series [4] the test system is CYP3A4. The following applies: RLM, HPLC, cited from earlier work.
Series [5] has as its system CYP3A4. The following applies: HLM, cited from earlier work.
Series [6] deals with CYP3A4. The conditions noted are these: substrate BOMCC, enzyme not given, positive control ERYT, fluorescence; cited from earlier work.
For series [7], the system named is CYP3A4. On the set-up: method as in PMID 31756459. The conditions noted are these: cited from earlier work.
The mark [8] stands for this setting: recombinant human CYP3A4 Baculosomes, pH 8, probe Vivid BOMR substrate, 50 µmol/L compound, BOMR substrate, mean ± SEM, negative = activation, read-out: CYP3A4 Inhibition (%) (50 µmol/L).
Where [9] appears, read: recombinant enzyme, pH 8, CYP3A4 Inhibition (%) (50 µmol/L).
Where [10] appears, read: substrate TST, positive control KTZ, HPLC-UV.

Values joined by “and” are separate entries in the source; they are usually repeats but may differ in a detail not shown here. Equal values may be shown once. Read-outs that look alike come from different tables or passages of the source.

T2 sequence (P08684 whole entry): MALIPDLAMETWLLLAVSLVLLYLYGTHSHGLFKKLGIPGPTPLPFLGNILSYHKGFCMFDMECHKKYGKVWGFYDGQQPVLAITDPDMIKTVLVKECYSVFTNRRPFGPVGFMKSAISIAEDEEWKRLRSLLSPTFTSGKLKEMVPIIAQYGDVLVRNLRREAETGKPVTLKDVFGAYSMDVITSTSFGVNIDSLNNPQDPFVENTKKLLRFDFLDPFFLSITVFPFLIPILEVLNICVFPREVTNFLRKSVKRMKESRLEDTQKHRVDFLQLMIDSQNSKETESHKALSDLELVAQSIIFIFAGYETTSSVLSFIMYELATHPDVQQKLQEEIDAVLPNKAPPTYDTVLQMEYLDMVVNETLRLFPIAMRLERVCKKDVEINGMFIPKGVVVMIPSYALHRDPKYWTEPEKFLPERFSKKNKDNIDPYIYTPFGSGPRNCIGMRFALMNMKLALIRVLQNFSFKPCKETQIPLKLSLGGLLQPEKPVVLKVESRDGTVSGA
T1 sequence (P08684 whole entry): as above

For `O=c1cc(-c2ccc(O)cc2)oc2cc(O)c(O)c(O)c12` [Scutellarein], the IC50 in series [1] (BOMR substrate, read-out: IC50) is 19 µM and 19.1 µM.

As to `O=c1c(O)c(-c2ccc(O)c(O)c2)oc2cc(O)cc(O)c12` [Quercetin], the IC50 in the series with CYP3A4 [2] (substrate BOMCC, positive control Erythro) was […]; in the series on CYP3A4 [4] (substrate RPG, positive control KTZ), […]. For the same compound, the inhibition at 30 min, 50 µmol/L on CYP3A4 [3] (setting [8]) is not below 50%. Regarding `O=c1c(O)c(-c2ccc(O)cc2)oc2cc(O)cc(O)c12` [Kaempferol], the inhibition at 30 min, 50 µmol/L on CYP3A4 [3] (setting [8]) amounted to 24 ± 8%. In the case of `O=c1c(O)c(-c2cc(O)c(O)c(O)c2)oc2cc(O)cc(O)c12` [Myricetin], the inhibition at 30 min, 50 µmol/L on CYP3A4 [3] (setting [9]) is 32 ± 12%. In the case of `O=c1cc(-c2ccc(O)c(O)c2)oc2cc(O)cc(O)c12` [Luteolin], the IC50 is 4.62 ± 1.26 µM in the series on CYP3A4 [5] (setting [10]); 6.8 µM with CYP3A4 [5] (substrate TST, positive control KTZ, RP-HPLC); 31 µM and 31.2 µM in series [1] (BOMR substrate, read-out: IC50); 57.1 ± 16.1 µM with CYP3A4 [6]. At CYP3A4 [3] (setting [8]), the inhibition at 30 min, 50 µmol/L was not below 50%.

On to `O=c1c(O)c(-c2ccccc2)oc2cc(O)cc(O)c12` [Galangin], for which the inhibition at 30 min, 50 µmol/L on CYP3A4 [3] (setting [8]) is 4 ± 9%.

Take `O=c1c(O)c(-c2ccc(O)cc2O)oc2cc(O)cc(O)c12` [Morin]: the inhibition at 30 min, 50 µmol/L at CYP3A4 [3] (setting [8]) turned out to be 38 ± 11%. Take `O=c1cc(-c2ccccc2)oc2ccccc12` [Flavone]: in the series with CYP3A4 [7], the “Activation of CYP3A4” value is given as 94.65 ± 7.10%. Also, at CYP3A4 [3] (setting [8]), the inhibition at 30 min, 50 µmol/L was -179 ± 73%. The “Effect on CYP3A4 activity (in words)” value in series [1] was “could act as an activator of the enzyme”. Regarding `O=c1c(O)c(-c2ccc(O)cc2)oc2cc(O)ccc12` [Resokaempferol], the inhibition at 30 min, 50 µmol/L on CYP3A4 [3] (setting [8]) was 38 ± 7%. Consider `O=c1c(O)c(-c2ccc(O)c(O)c2)oc2c(O)c(O)cc(O)c12` [Gossypetin], for which the inhibition at 30 min, 50 µmol/L on CYP3A4 [3] (setting [9]) was not below 50%. In series [1] (IC50, BOMR substrate), the IC50 was 40 µM and 40.1 µM. With `O=c1cc(-c2ccc(O)cc2)oc2cc(O)cc(O)c12` [Apigenin], on CYP3A4 [3] (setting [9]), the inhibition at 30 min, 50 µmol/L came out at 23 ± 8%. `O=c1cc(-c2ccccc2)oc2cc(O)cc(O)c12` [Chrysin]: the inhibition at 30 min, 50 µmol/L on CYP3A4 [3] (setting [9]) came out at 28 ± 17%. Regarding `O=c1cc(-c2ccccc2)oc2cc(O)c(O)c(O)c12` [Baicalein], the IC50 in the series on CYP3A4 [5] (different substrates, fluorescence) is 7.56 to 26.4 µM; in the series with CYP3A4 [5] (setting [10]) it was 9.6 ± 1.18 µM; with CYP3A4 [2] (substrate BFC, positive control KTZ) it was 9.2 µM; in series [1] (IC50, BOMR substrate) it was 15 ± 5 µM; in the series with CYP3A4 [4] (substrate TST), 12 µM. `O=c1c(O)c(-c2ccc(O)cc2)oc2c(O)c(O)cc(O)c12` [Herbacetin]: the IC50 in the series on CYP3A4 [5] (UPLC-MS/MS) is less than 10 µM; in series [1] (BOMR substrate, read-out: IC50) it was 32 µM and 31.5 µM. For `O=C1C[C@@H](c2ccc(O)cc2)Oc2cc(O)cc(O)c21` [Naringenin], the inhibition at 30 min, 50 µmol/L at CYP3A4 [3] (setting [8]) is -11 ± 5%. Moreover, in series [1], the “Effect on CYP3A4 activity (in words)” value was “no inhibitory effect was noticed”.

As to `O=c1c(O)c(-c2ccc(O)c(O)c2)oc2cc(O)ccc12` [Fisetin], the inhibition at 30 min, 50 µmol/L at CYP3A4 [3] (setting [8]) worked out at 30 ± 13%.

These data come from PMC11940229, “How Plant Polyhydroxy Flavonoids Can Hinder the Metabolism of Cytochrome 3A4” (Biomedicines, 2025).
